Laboratory results: patent publication US8916586B2, “Anti-angiogenic compound” (University College Dublin—National University of Ireland, …, priority 2011, dated 2014)
Entries after “also recorded” stand apart in the source; their conditions may differ.

Key:
[1] = test system: trunk intersegmental vessels of zebrafish; test: Quantification of intersegmental vessel number in zebrafish larvae; assay type: in vivo; settings: for inhibition of developmental angiogenesis of the trunk intersegmental vessels / inhibition at 10 µM: 10 μM; for inhibition of developmental angiogenesis of the trunk intersegmental vessels: added at 6 hours post-fertilisation; for dose-dependence of inhibition of intersegmental vessel development: 0.1-10 μM; for dose-dependence of inhibition of intersegmental vessel development / inhibition at 10 µM: added at 6 hours post fertilisation; for inhibition at 10 µM: Danio rerio, read-out: inhibition of intersegmental vessel formation
Procedure: […] Larvae were manually dechorionated, euthanised, and fixed in 4% PFA at 4° C. overnight before analysis. The larvae were then washed with PBS and transferred to depression slides for observation under epi-fluorescence in an Olympus SZX16 fluorescent microscope. The number of intersegmental vessels was counted and the average number was graphed for each drug. […] At the highest concentration (10 μM), 11B was seen to inhibit intersegmental vessel formation by 44%. 11F inhibited intersegmental vessel formation by 16% at the highest concentration (10 μM).

[2] = test system: zebrafish larvae; test: Gross morphology / toxicity and eye morphology of treated zebrafish larvae; assay type: in vivo; settings: for toxic effects / gross morphology of larvae: treated 1-5 dpf
Procedure: Prior to analysis of the intraocular vasculature, the control and treated larvae were observed under an Olympus SZX16 stereo zoom microscope and screened for general malformations. Overall patterning of the vasculature (fin, gut and intersegmental vessels) was examined for abnormalities (FIGS. 7B and 9A).
(§1) Visual function was assessed using the optokinetic response, a behavioural assay that tests the ability of larval zebrafish to track moving stripes (Brockerhoff 2006). […] For these experiments the compounds were screened in zebrafish larvae as described above except that the drug (compound 11B) was added at either day 1, 2, 3 or 4, and all treated larvae were analysed at day 5.

[3] = test system: dermal-derived normal human microvascular endothelial cells (HMVEC-d); test: In vitro HMVEC-d tube formation assay on Matrigel; assay type: cell-based; settings: 100 nM, 20 hr
Procedure: HMVEC-d were purchased from Clonetics, San Diego, Calif., USA. Cells were maintained in complete Endothelial Cell Medium (Clonetics® EGM®-2-MV BulletKit®) containing 500 ml of Endothelial Cell Basal Medium-2 and supplemented with hEGF, 0.5 ml; Hydrocortisone, 0.2 ml; GA-1000, 0.5 ml; FBS, 25 ml; VEGF, 0.5 ml; hFGF-B, 2.0 ml; R3-IGF-1, 0.5 ml; Ascorbic Acid, 0.5 ml in a 37° C. humidified atmosphere of 5% CO2/95% air. HMVEC-d were used for experiments between passages 4-8.
Matrigel (Becton Dickenson) basement membrane matrix was used to examine HMVEC-d tube formation. Matrigel (50 μl) was plated in 96 well culture plate wells after thawing on ice and allowed to polymerise at 37° C. 5% CO2 humidified atmosphere for 1 hr. HMVEC-d were removed from culture, trypsinised, and resuspended in full strength EGM growth medium. Cells were seeded at a density of 50×10^4 cells/cm^2 and incubated for 20 hr at 37° C. 5% CO2 humidified atmosphere. Endothelial cell tubule formation was assessed using phase contrast microscopy and photographed. A connecting branch between two discrete ECs was counted as one tube. The tube analysis was determined from 3 sequential fields (magnification×10) focusing on the surface of the matrigel.

[4] = test system: IL-1β secreted from explant cultures of human colorectal cancers; test: IL-1β secretion from human colorectal tumour explants (ELISA); assay type: cell-based; settings: 72 hours; for level of IL-1β secreted by human tumour explants: 1 μM and 10 μM tested, concentration not given at place; for level of IL-1b secreted by human tumour explants: 10 μM
Procedure: (§2) Human colorectal tumour samples were taken directly from the pathology laboratory after surgery once adequate material was taken for diagnostic testing. The tumour samples were washed and stored in DMSO/tumour conditioning media (TCM). The samples were snap-frozen in liquid nitrogen and stored at −80° C. until compound testing was performed. Prior to compound testing, the tumours were thawed and incubated in fresh TCM for 24 hours. […] The TCM solutions were collected and stored at −20° C. and the remaining tumour explants were snap-frozen in liquid nitrogen and stored at −80° C. The protein content of each tumour sample was determined using the BCA protein assay. ELISA was used to determine the levels of VEGF, IL-8, MCP-1, GRO-α, IL-1β and IL-6. The secretion data were normalised according to the tumour sample's protein content.

[5] = test system: zebrafish larvae; test: Visual function by optokinetic response (OKR) in zebrafish larvae; assay type: in vivo; settings: treated from day 2-5 or day 3-5
Procedure: as §1

[6] = test system: mouse model of oxygen induced retinopathy (OIR); test: Mouse oxygen-induced retinopathy (OIR) model of ocular neovascularisation; assay type: in vivo; settings: for avascular area of the retina in treated eyes: postnatal day 12-17, intravitreal
Procedure: To assess the ability of compound 11B to inhibit ocular neovascularisation in mammalian eyes, 11B was tested in the mouse model of oxygen induced retinopathy (OIR). […] 11B was injected intravitreally into a mouse model of oxygen-induced retinopathy (OIR). The OIR model was generated by placing postnatal day 7 (P7) mouse pups into hyperoxia (75% oxygen) for 5 days and then removing them to normoxia (21%) on postnatal day 12 (P12). The hyperoxic (high oxygen) environment causes retinal blood vessels to regress between P7 and P12. The normoxic environment on P12 is a relatively hypoxic (low oxygen) environment for the mice and causes the growth of new blood vessels (angiogenesis). For all samples, eyes were enucleated, fixed, flat mounted and then stained with an isolectin antibody to visualise the blood vessels. Blood vessels were quantified and those treated with lead compounds compared to controls.

[7] = test system: IL-6 secreted from explant cultures of human colorectal cancers; test: IL-6 secretion from human colorectal tumour explants (ELISA); assay type: cell-based; settings: 72 hours
Procedure: as §2

[8] = test system: hyaloid vasculature in zebrafish; test: Zebrafish developmental angiogenesis assay: number of primary branches of hyaloid vasculature on dissected lens; assay type: in vivo

## COc1cc2c(C3CCCN3C)cnc(Cc3ccc4c(c3)OCO4)c2cc1OC (centres unmarked) [11F, 1-(1,3-benzodioxol-5-ylmethyl)-6,7-dimethoxy-4-(1-methyl-2-pyrrolidinyl)isoquinoline]
[1]
  inhibition of developmental angiogenesis of the trunk intersegmental vessels: modest but significant inhibition
  dose-dependence of inhibition of intersegmental vessel development: dose-dependent and statistically significant manner
  inhibition at 10 µM: 16%
[2]
  toxic effects / gross morphology of larvae: do not induce toxic effects
[3]
  reduction of tubule formation compared to control: 9%
[4]
  level of IL-1β secreted by human tumour explants: significantly reduced
  level of IL-1b secreted by human tumour explants: significantly reduced

## Oc1ccccc1/C=C/c1ccc2ccccc2n1 [11B]
[1]
  inhibition of developmental angiogenesis of the trunk intersegmental vessels: significant inhibition
  dose-dependence of inhibition of intersegmental vessel development: dose-dependent and statistically significant manner
  inhibition at 10 µM: 44%
[1]; added from day 1-5
  effect on existing (earlier formed) intersegmental vessels of the trunk: no effect; also recorded: intact
[2]; 10 μM, treated from day 2-5 or day 3-5
  wholemount morphology of larvae: normal
[2]
  toxic effects / gross morphology of larvae: do not induce toxic effects
[2]; treated larvae
  morphology of eyes in transverse sections (layering of the retina, size of retina/lens, presence of optic nerve): normal
[5]
  visual function, optokinetic response (OKR): no significant effect; also recorded: not statistically different from controls
[3]
  inhibition of HMVEC-d tubule formation: significantly inhibits
[6]; 0.5 μM
  avascular area of the retina in treated eyes: ~33%
[6]; 3 μM
  avascular area of the retina in treated eyes: ~30%
[6]; intraocular injections
  increase in avascular retina relative to the avascular area in the P17 control: ~2.4 fold
[6]; intravitreal injection
  inhibition of ocular neovascularisation in OIR model: inhibited angiogenesis; also recorded: can inhibit intraocular neovascularisation
[7]; 1 μM and 10 μM tested, concentration not given at place
  level of IL-6 secreted by human tumour explants: significantly reduced
[7]; 1 μM
  level of IL-6 secreted by human tumour explants: significantly reduces
[7]; 10 μM
  level of IL-6 secreted by human tumour explants: significantly reduces
[4]
  level of IL-1β secreted by human tumour explants: significantly reduced
  level of IL-1b secreted by human tumour explants: significantly reduces
[8]; 5 μM, treated day 2-5
  number of primary branches of hyaloid vasculature: significant reduction
[8]; 5 μM, treated day 3-5
  number of primary branches of hyaloid vasculature: no significant effect
[8]; 5 μM, treated day 4-5
  number of primary branches of hyaloid vasculature: no significant effect
[8]; 10 μM, treated day 2-5
  number of primary branches of hyaloid vasculature: significant reduction
[8]; 10 μM, treated day 3-5
  number of primary branches of hyaloid vasculature: significant reduction
[8]; 10 μM, treated day 4-5
  number of primary branches of hyaloid vasculature: no effect
[8]; drug added at day 1, 2, 3 or 4, analysed at day 5
  time-dependence of inhibition of developmental angiogenesis in the eye: time-dependent effect; also recorded: time-dependent manner
